Assay results from US8569270B2, “Diphenyl sulfide derivatives and medicines containing same as active ingredient” (Kyorin Pharmaceutical Co., Ltd., priority 2009, dated 2013).

Assays:
Human S1P3 receptor = biological target: T1, Human S1P3 receptor (Homo sapiens, UniProt Q99500); assay: Suppression of S1P-induced cellular calcium mobilization in human S1P3 receptor-expression CHO cells (Schild plot); type: cell-based; details: Schild plot of S1P EC50 shift; test compound 125 nM, 1.25 μM, 12.5 μM; hS1P3 CHO cells; read-out: S1P3 dissociation constant Kd value
T1 construct: expressed in transfected cells; host or cells: CHO cells (Geneticin-selected)
T1 sequence (Q99500 whole entry): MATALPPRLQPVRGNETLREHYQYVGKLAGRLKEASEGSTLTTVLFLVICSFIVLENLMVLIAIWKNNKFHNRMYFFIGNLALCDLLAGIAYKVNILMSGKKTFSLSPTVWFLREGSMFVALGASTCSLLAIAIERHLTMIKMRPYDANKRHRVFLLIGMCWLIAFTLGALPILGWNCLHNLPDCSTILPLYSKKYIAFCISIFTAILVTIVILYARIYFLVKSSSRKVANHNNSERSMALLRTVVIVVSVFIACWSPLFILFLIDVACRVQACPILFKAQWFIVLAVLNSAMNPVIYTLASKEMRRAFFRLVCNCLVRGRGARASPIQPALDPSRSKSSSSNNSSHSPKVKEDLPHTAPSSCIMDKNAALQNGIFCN
Procedure: Suppression Effect of Test Compound Against Cellular Calcium Mobilization of Human S1P3 Receptor-Expression Cell by S1P (Sphingosine 1-Phosphoric Acid)
Human S1P3 receptor-expression CHO cells were subcultured in a Ham's F-12 culture medium containing 10% fetal bovine serum, and 300 μg/mL of Geneticin. The human S1P3 receptor-expression CHO cells were subjected to 0.25% trypsinization, then recovered from the dish, and floated in a Ham's F-12 culture medium containing 10% fetal bovine serum, and 300 μg/mL of Geneticin. After that, the human S1P3 receptor-expression CHO cells were disseminated into a 96-well black clear bottom plate (BD Falcon Biocoat) so that 7×10^4/100 μL/well of the human S1P3 receptor-expression CHO cells were disseminated. And then, the human S1P3 receptor-expression CHO cells were cultivated for one night at 37° C. under 5% CO2. The next day, the wells were washed 3 times with 100 μL of PBS containing 0.1% fatty acid-free bovine serum albumin (BSA). The culture medium was exchanged with a Ham's F-12 culture medium containing 0.1% BSA, and then starved of serum for 6 hours in an CO2 incubator at 37° C.
The culture medium was thrown away after the 6 hours. Then, 50 μL/well of a Fluo3 loading buffer was added, and the cultures were cultivated for further 1 hour. The Fluo3 loading buffer was prepared as follows. First, equal amounts of Fluo3-AM (Dojindo) and pluronic F-127 (20% DMSO solution, invitrogen) were mixed. Next, the mixture of Fluo3-AM and pluronic F-127 was added to a Hanks-HEPES buffer (balanced salt solution containing 20 mM HEPES (pH, 7.4), 0.1% BSA (fatty acid-free), and 2.5 mM probenecid) to form a Fluo3 loading buffer having a final Fluo3-AM concentration of 4
After incubating for 1 hour, the cultures were washed 3 times with 100 μL of the Hanks-HEPES buffer. Then, 100 μL of the same buffer in which a test compound (125 nM, 1.25 μM, 12.5 μM) or DMSO had been dissolved was added to the cultures, and then incubated for 30 minutes at 37° C. in a microplate spectrophotofluorometer (FLEX Station) (Molecular Device Co., Ltd.). Then, 25 μL of S1P prepared at 5 times the concentration of the final concentration by serial dilution (final concentration of 0.1 nM, 1 nM, 10 nM, 100 nM, and 1 μM) was added, and the fluorescence based on the Fluo3 due to calcium mobilization was detected and measured at an excitation wavelength of 485 nm and a detection wavelength of 525 nm using the same apparatus. Based on the measurement data, the increase in fluorescence was calculated by subtracting the minimum fluorescence intensity from the maximum fluorescence intensity. The measured increase in fluorescence was used to perform a curve approximation of the relationship between the S1P concentration and the increase in fluorescence using PRISM 4 software (GraphPad). Based on the results, the EC50 value of the compound-untreated and the EC50 value of the compound-treated at each concentration were calculated. Schild Plot analysis was performed based on these values to determine dissociation constant Kd value. In Table 1, 1,000 nmol/L>Kd value≧100 nmol/L is indicated as “+,” 100 nmol/L>Kd value≧10 nmol/L is indicated as “++,” 10 nmol/L>Kd value≧1 nmol/L is indicated as “+++,” and 1 nmol/L>Kd value is indicated as “++++.”

IL-1β production = assay: LPS induced sepsis model, IL-1β in tissue by ELISA; type: in vivo, C57BL/6J mouse; details: 10 mg/kg i.v. twice (15 min before and 2 h after LPS), 18 h after LPS; for Suppression Rate for Lung: mouse lung; for Suppression Rate for Mesenteric Lymph Nodes: mouse mesenteric lymph nodes
Procedure: The experiment was carried out with reference to the method described in Non-Patent Literature 5 (F. Nissen et al., Nature, 452, 654 (2008)). A solution of 1 mg/ml LPS (lipopolysaccharide) in physiological saline was intraperitoneally administered (10 ml/kg) to a C57BL/6J mouse (Charles River, male, 7 to 8 weeks). The test compound in an amount of 10 mg/kg was intravenously administered twice, 15 minutes before LPS administration and 2 hours after LPS administration. The mouse was dissected 18 hours after LPS administration, and the mesenteric lymph nodes and lungs were excised. The mesenteric lymph nodes were dissolved in 200 μl and the lungs in 1 ml of a dissolving buffer (30 mM Tris (pH7.4), 150 mM NaCl, 0.1% TritonX-100, 2 mM CaCl2, and 2 mM MgCl2). Non-dissolved matter was removed by centrifugal separation. The IL-1β in the tissue solutions was measured using an IL-1β ELISA Kit (Thermo Co., Ltd.). In Table 2, compounds having a suppression rate of 50% or more are indicated as “+++,” compounds having a suppression rate of 50%>suppression rate≧30% are indicated as “++,” and compounds having a suppression rate of 30%>suppression rate 20% are indicated as “+.”
The suppression rate was calculated using the following calculation equation. a=(1−X/Y)×100 [Equation 1] X: IL-1β PRODUCTION AMOUNT WHEN, 10 mg/kg OF TEST COMPOUND WAS ADMINISTERED TO RESPECTIVE TISSUE Y: IL-1β PRODUCTION AMOUNT WHEN TEST COMPOUND WAS NOT ADMINISTERED TO RESPECTIVE TISSUE a: SUPPRESSION RATE (%)

S1P1 receptor [1] = biological target: T2, S1P1 receptor (Homo sapiens, UniProt P21453); assay: Antagonistic action on the S1P1 receptor using the method of Experiment Example 1; type: cell-based; parameters: expressed in transfected cells
T2 sequence (P21453 whole entry): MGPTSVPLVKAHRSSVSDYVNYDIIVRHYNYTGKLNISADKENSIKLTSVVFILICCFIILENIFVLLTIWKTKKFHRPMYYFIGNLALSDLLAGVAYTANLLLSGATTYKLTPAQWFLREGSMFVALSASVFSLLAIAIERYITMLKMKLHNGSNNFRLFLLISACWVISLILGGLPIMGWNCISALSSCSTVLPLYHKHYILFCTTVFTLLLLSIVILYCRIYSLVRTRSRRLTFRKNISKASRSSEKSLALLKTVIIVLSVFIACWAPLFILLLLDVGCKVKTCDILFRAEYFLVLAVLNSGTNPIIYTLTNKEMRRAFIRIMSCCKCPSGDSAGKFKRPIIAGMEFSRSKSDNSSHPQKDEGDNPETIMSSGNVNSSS

S1P1 receptor [2] = biological target: T2, S1P1 receptor; assay: Intracellular calcium mobilization derivative (agonist) test in human S1P1 receptor-expression CHO cells; type: cell-based; parameters: expressed in transfected cells; host or cells: CHO cells (Geneticin-selected); details: agonist mode, read-out: EC50 value, intracellular calcium mobilization derivative action
Procedure: Intracellular Calcium Mobilization Derivative Test of Test Compound Against Human S1P1 Receptor-Expression Cell
Human S1P receptor-expression CHO cells (hS1P1 receptor-expression CHO cells, hS1P3 receptor-expression CHO cells, and hS1P4 receptor-expression CHO cells) subcultured in a Ham's F-12 culture medium containing 10% fetal bovine serum, and 200 μg/mL of Geneticin were disseminated into a 96-well black clear bottom plate (coaster) so that 4×10^4 cells/well of the human S1P receptor-expression CHO cells were disseminated. The human S1P3 receptor-expression CHO cells were then cultivated for one night at 37° C. under 5% CO2. A Calcium Screening Kit reagent (Dojindo) was added as a Ca^2+ binding fluorescence indicator, and then the cultures were cultivated for 60 minutes at 37° C. under 5% CO2. After cultivation, the fluoroesence intensity was measured at an excitation wavelength of 485 nm and a detection wavelength of 525 nm using a microplate spectrophotofluorometer (FLEX Station) (Molecular Device Co., Ltd.). S1P prepared in a culture medium so that the concentration would be 10 times that of the final concentration, or a test compound (final DMSO concentration 0.1%) was added 18 seconds after the start of the fluorescence measurement, and the fluorescence intensity was continuously measured every 1.5 seconds until 100 seconds after the addition. […]

[3] = test system: Cecal ligation and puncture sepsis model; assay: Cecal ligation and puncture sepsis model, survival; type: in vivo, Long-Evans rats; details: 0.1 mg/kg/hr continuous i.v. from 2 hours after CLP, rat
Procedure: This model is widely used as a model for polymicrobial abdominal sepsis caused by leakage of intestinal bacteria. The experiment was carried out with reference to the method described in Non-Patent Literature 9 (D. Rittirsch et al., Nature Protocols, 4, 31 (2009)). Long-Evans rats were used (Nihon SLC, male 9 weeks). The abdominal portion of the rats was cut open under isoflurane anesthesia, and the cecum was removed. The cecum was ligated with silk thread, and 3 holes were opened in the tip portion of the cecum using an 18 G syringe needle. After the treatment, the cecum was returned to the body, and the wound was sutured. The rats were then returned to their cages, and observed for 4 days to determine the survival rate. The test compound (0.1 mg/kg/hr) was continuously administered from a cannula stuck in the femoral vein from 2 hours after the CLP treatment.

Structure (SMILES) | Kd (Human S1P3 receptor) | Suppression Rate for Lung (IL-1β production) | Suppression Rate for Mesenteric Lymph Nodes (IL-1β production) | Kd (S1P1 receptor [1]) | EC50 (S1P1 receptor [2]) | survival rate after 4 days ([3]; medium group 40%) | survival curve compared with the medium administration group ([3]; observed 4 days)
C=CC[C@](N)(CCc1ccc(Sc2cc(C(F)(F)F)ccc2O)cc1Cl)COP(=O)(O)O [Example 12, (R)-2-allyl-2-amino-4-[2-chloro-4-(2-hydroxy-5-trifluoromethylphenylthio)phenyl]-butylphosphoric acid monoester] | < 0.001 µM | ++ (50%>suppression rate≧30%) | + (30%>suppression rate 20%) |  |  |  | 
C[C@](N)(CCc1ccc(Sc2cc(C#N)ccc2O)cc1Cl)COP(=O)(O)O [Example 15, (S)-2-amino-4-[2-chloro-4-(5-cyano-2-hydroxyphenylthio)phenyl]-2-methylbutylphosphoric acid monoester] | 0.1 to 1 µM |  |  | > 100 µM | > 10 µM |  | 
CCC[C@](N)(CCc1ccc(Sc2cc(C(F)(F)F)ccc2O)cc1Cl)COP(=O)(O)O [Example 13] | < 0.001 µM | +++ (suppression rate of 50% or more) | +++ (suppression rate of 50% or more) | > 100 µM | > 10 µM |  | 
CCC[C@](N)(CCc1ccc(Sc2cc(-c3ccccc3)ccc2O)cc1Cl)COP(=O)(O)O [Example 22] | < 0.001 µM |  |  |  |  | 70% | survival curve that had shifted to the right
C[C@](N)(CCc1ccc(Sc2cc(C(F)(F)F)ccc2O)cc1Cl)COP(=O)(O)O [Example 11, (S)-2-amino-4-[2-chloro-4-(2-hydroxy-5-trifluoromethylphenylthio)phenyl]-2-methylbutylphosphoric acid monoester] | 0.001 to 0.01 µM | ++ (50%>suppression rate≧30%) | ++ (50%>suppression rate≧30%) |  |  |  | 
CCCc1ccc(O)c(Sc2ccc(CC[C@@](N)(CCC)COP(=O)(O)O)c(Cl)c2)c1 [Example 18, (S)-2-amino-4-[2-chloro-4-(2-hydroxy-5-propylphenylthio)phenyl]-2-propylbutylphosphoric acid monoester] | 0.001 to 0.01 µM |  |  |  |  |  | 
C[C@](N)(CCc1ccc(Sc2cc(C3CC3)ccc2O)cc1Cl)COP(=O)(O)O [Example 5, (S)-2-amino-4-[2-chloro-4-(5-cyclopropyl-2-hydroxyphenylthio)phenyl]-2-methylbutylphosphoric acid monoester] | 0.001 to 0.01 µM |  |  |  |  |  | 
Cc1ccc(O)c(Sc2ccc(CC[C@](C)(N)COP(=O)(O)O)c(Cl)c2)c1 [Example 1, (S)-2-amino-4-[2-chloro-4-(2-hydroxy-5-methylphenylthio)phenyl]-2-methylbutylphosphoric acid monoester] | 0.01 to 0.1 µM |  |  |  |  |  | 
